Laboratory results reported in patent US9884842B2, “Combretastatin analogs” (The Board of Trustees of the University of Arkansas, priority 2013, dated 2018).

What follows are compounds tested on full panel of 60 different cancer cell lines (assay: NCI five dose screen, full panel summary). Settings: Homo sapiens; range over the potently inhibited cell lines; read-out: GI50 ranging (potently inhibited cancer cell lines).
Format: cell-based, human

SMILES	GI50
COc1cc(/C(C#N)=C/c2ccc3ccccc3n2)cc(OC)c1OC [PNR-4-90, (Z)-3-(quinolin-2-yl)-2-(3,4,5-trimethoxyphenyl)acrylonitrile]	33 to 943 nM

Same assay, conditions: Homo sapiens; read-out: average GI50 value on all the cancer cell lines

SMILES	GI50
COc1cc(/C(C#N)=C/c2ccc3ccccc3n2)cc(OC)c1OC [PNR-4-90, (Z)-3-(quinolin-2-yl)-2-(3,4,5-trimethoxyphenyl)acrylonitrile]	400 nM

Same assay, conditions: share of the cancer cell lines potently inhibited

SMILES	potent growth inhibition on % of the cancer cell lines
COc1cc(/C(C#N)=C/c2ccc3ccccc3n2)cc(OC)c1OC [PNR-4-90, (Z)-3-(quinolin-2-yl)-2-(3,4,5-trimethoxyphenyl)acrylonitrile]	91%

What follows are compounds tested on U251 (assay: NCI growth inhibition and cytotoxicity screen, CNS Cancer panel). Settings: Homo sapiens, U-251.

SMILES	GI50
COc1cc(/C(C#N)=C/c2ccc3ccccc3n2)cc(OC)c1OC [PNR-4-90, (Z)-3-(quinolin-2-yl)-2-(3,4,5-trimethoxyphenyl)acrylonitrile]	355 nM

Same assay, conditions: Homo sapiens, U-251, read-out: LC50

SMILES	CC50
COc1cc(/C(C#N)=C/c2ccc3ccccc3n2)cc(OC)c1OC [PNR-4-90, (Z)-3-(quinolin-2-yl)-2-(3,4,5-trimethoxyphenyl)acrylonitrile]	90500 nM

These compounds were tested on HCT-116 (assay: NCI growth inhibition and cytotoxicity screen, Colon Cancer panel). Settings: Homo sapiens, HCT-116.

SMILES	GI50
COc1cc(/C(C#N)=C/c2ccc3ccccc3n2)cc(OC)c1OC [PNR-4-90, (Z)-3-(quinolin-2-yl)-2-(3,4,5-trimethoxyphenyl)acrylonitrile]	234 nM

Same assay, conditions: Homo sapiens, HCT-116, read-out: LC50

SMILES	CC50
COc1cc(/C(C#N)=C/c2ccc3ccccc3n2)cc(OC)c1OC [PNR-4-90, (Z)-3-(quinolin-2-yl)-2-(3,4,5-trimethoxyphenyl)acrylonitrile]	> 100000 nM

What follows are compounds tested on PC-3 (assay: NCI growth inhibition and cytotoxicity screen, Prostate Cancer panel). Settings: Homo sapiens, PC-3.

SMILES	GI50
COc1cc(/C(C#N)=C/c2ccc3ccccc3n2)cc(OC)c1OC [PNR-4-90, (Z)-3-(quinolin-2-yl)-2-(3,4,5-trimethoxyphenyl)acrylonitrile]	348 nM

Same assay, conditions: Homo sapiens, PC-3, read-out: LC50

SMILES	CC50
COc1cc(/C(C#N)=C/c2ccc3ccccc3n2)cc(OC)c1OC [PNR-4-90, (Z)-3-(quinolin-2-yl)-2-(3,4,5-trimethoxyphenyl)acrylonitrile]	> 100000 nM

These compounds were tested on UACC-62 (assay: NCI growth inhibition and cytotoxicity screen, Melanoma panel). Settings: Homo sapiens, UACC-62.

SMILES	GI50
COc1cc(/C(C#N)=C/c2ccc3ccccc3n2)cc(OC)c1OC [PNR-4-90, (Z)-3-(quinolin-2-yl)-2-(3,4,5-trimethoxyphenyl)acrylonitrile]	92 nM

Same assay, conditions: Homo sapiens, UACC-62, read-out: LC50

SMILES	CC50
COc1cc(/C(C#N)=C/c2ccc3ccccc3n2)cc(OC)c1OC [PNR-4-90, (Z)-3-(quinolin-2-yl)-2-(3,4,5-trimethoxyphenyl)acrylonitrile]	> 100000 nM

The compounds below were run on LOX-IMVI in the same assay as above. Settings: Homo sapiens.

SMILES	GI50
COc1cc(/C(C#N)=C/c2ccc3ccccc3n2)cc(OC)c1OC [PNR-4-90, (Z)-3-(quinolin-2-yl)-2-(3,4,5-trimethoxyphenyl)acrylonitrile]	766 nM

Same assay, conditions: Homo sapiens, read-out: LC50

SMILES	CC50
COc1cc(/C(C#N)=C/c2ccc3ccccc3n2)cc(OC)c1OC [PNR-4-90, (Z)-3-(quinolin-2-yl)-2-(3,4,5-trimethoxyphenyl)acrylonitrile]	> 100000 nM

Each compound was assayed on SNB-75 (assay: NCI growth inhibition and cytotoxicity screen, CNS Cancer panel). Settings: Homo sapiens, SNB-75.

SMILES	GI50
COc1cc(/C(C#N)=C/c2ccc3ccccc3n2)cc(OC)c1OC [PNR-4-90, (Z)-3-(quinolin-2-yl)-2-(3,4,5-trimethoxyphenyl)acrylonitrile]	182 nM

Same assay, conditions: Homo sapiens, SNB-75, read-out: LC50

SMILES	CC50
COc1cc(/C(C#N)=C/c2ccc3ccccc3n2)cc(OC)c1OC [PNR-4-90, (Z)-3-(quinolin-2-yl)-2-(3,4,5-trimethoxyphenyl)acrylonitrile]	98800 nM

The compounds below were run on HCT-15 (assay: NCI growth inhibition and cytotoxicity screen, Colon Cancer panel). Settings: Homo sapiens, HCT-15.

SMILES	GI50
COc1cc(/C(C#N)=C/c2ccc3ccccc3n2)cc(OC)c1OC [PNR-4-90, (Z)-3-(quinolin-2-yl)-2-(3,4,5-trimethoxyphenyl)acrylonitrile]	319 nM

Same assay, conditions: Homo sapiens, HCT-15, read-out: LC50

SMILES	CC50
COc1cc(/C(C#N)=C/c2ccc3ccccc3n2)cc(OC)c1OC [PNR-4-90, (Z)-3-(quinolin-2-yl)-2-(3,4,5-trimethoxyphenyl)acrylonitrile]	> 100000 nM

These compounds were tested on CAKI-1 (assay: NCI growth inhibition and cytotoxicity screen, Renal Cancer panel). Settings: Homo sapiens, CAKI-1.

SMILES	GI50
COc1cc(/C(C#N)=C/c2ccc3ccccc3n2)cc(OC)c1OC [PNR-4-90, (Z)-3-(quinolin-2-yl)-2-(3,4,5-trimethoxyphenyl)acrylonitrile]	68 nM

Same assay, conditions: Homo sapiens, CAKI-1, read-out: LC50

SMILES	CC50
COc1cc(/C(C#N)=C/c2ccc3ccccc3n2)cc(OC)c1OC [PNR-4-90, (Z)-3-(quinolin-2-yl)-2-(3,4,5-trimethoxyphenyl)acrylonitrile]	> 100000 nM

Each compound was assayed on RXF 393 in the same assay as above. Settings: Homo sapiens, RXF 393.

SMILES	GI50
COc1cc(/C(C#N)=C/c2ccc3ccccc3n2)cc(OC)c1OC [PNR-4-90, (Z)-3-(quinolin-2-yl)-2-(3,4,5-trimethoxyphenyl)acrylonitrile]	271 nM

Same assay, conditions: Homo sapiens, RXF 393, read-out: LC50

SMILES	CC50
COc1cc(/C(C#N)=C/c2ccc3ccccc3n2)cc(OC)c1OC [PNR-4-90, (Z)-3-(quinolin-2-yl)-2-(3,4,5-trimethoxyphenyl)acrylonitrile]	> 100000 nM

These compounds were tested on KM12 (assay: NCI growth inhibition and cytotoxicity screen, Colon Cancer panel). Settings: Homo sapiens, KM12.

SMILES	GI50
COc1cc(/C(C#N)=C/c2ccc3ccccc3n2)cc(OC)c1OC [PNR-4-90, (Z)-3-(quinolin-2-yl)-2-(3,4,5-trimethoxyphenyl)acrylonitrile]	350 nM

Same assay, conditions: Homo sapiens, KM12, read-out: LC50

SMILES	CC50
COc1cc(/C(C#N)=C/c2ccc3ccccc3n2)cc(OC)c1OC [PNR-4-90, (Z)-3-(quinolin-2-yl)-2-(3,4,5-trimethoxyphenyl)acrylonitrile]	> 100000 nM

What follows are compounds tested on HS 578T (assay: NCI growth inhibition and cytotoxicity screen, Breast Cancer panel). Settings: Homo sapiens.

SMILES	GI50
COc1cc(/C(C#N)=C/c2ccc3ccccc3n2)cc(OC)c1OC [PNR-4-90, (Z)-3-(quinolin-2-yl)-2-(3,4,5-trimethoxyphenyl)acrylonitrile]	689 nM

Same assay, conditions: Homo sapiens, read-out: LC50

SMILES	CC50
COc1cc(/C(C#N)=C/c2ccc3ccccc3n2)cc(OC)c1OC [PNR-4-90, (Z)-3-(quinolin-2-yl)-2-(3,4,5-trimethoxyphenyl)acrylonitrile]	> 100000 nM

These compounds were tested on MOLT-4 (assay: NCI growth inhibition and cytotoxicity screen, Leukemia panel). Settings: Homo sapiens, MOLT-4.

SMILES	GI50
COc1cc(/C(C#N)=C/c2ccc3ccccc3n2)cc(OC)c1OC [PNR-4-90, (Z)-3-(quinolin-2-yl)-2-(3,4,5-trimethoxyphenyl)acrylonitrile]	488 nM

Same assay, conditions: Homo sapiens, MOLT-4, read-out: LC50

SMILES	CC50
COc1cc(/C(C#N)=C/c2ccc3ccccc3n2)cc(OC)c1OC [PNR-4-90, (Z)-3-(quinolin-2-yl)-2-(3,4,5-trimethoxyphenyl)acrylonitrile]	> 100000 nM
